Measurements as given in patent publication US20260315562A1, “NOVEL FEED-ADDITIVE COMPOSITION” (KYNTOX BIOTECH INDIA PRIVATE LIMITED, priority 2023, published 2026).

Assays:
WSSV = assay: In vivo anti-viral bioassay: survival of freshwater crabs after WSSV challenge; as to Animal survival/mortality: key: 0: Represents live animal; 1: Represents Animal Mortality; design: species or system P. hydrodromous
Procedure: Positive Control: The term is used herein in reference to disease positive control where only WSSV virus is injected without any antagonist. This positive for the disease expression.
The experimental groups have been divided in seven groups, Group-I-VII as described below:
(§1) Freshwater crabs P. hydrodromous were collected from Padavedu (12.6310070 79.052885°) Vellore, India.
(§2) The animals with a body weight of 20-25 g were transported to the laboratory and maintained at room temperature (25° C.). The crabs were fed twice a day with boiled egg whites. The crabs were kept in the described condition for one week before the experiment.
As described in earlier reports (Natarajan et al., 2017), haemolymph was drawn from WSSV infected shrimp using a 26-gauge syringe through heart puncture. The haemolymph was centrifuged at 3000 rpm for 20 minutes at 4° C. The supernatant was collected and it was centrifuged for 30 minutes at 4° C. and then it was filtered using 0.45p m and stored at −20° C. for further studies. The haemolymph were analyzed via PCR to confirm the presence of WSSV. To amplify the structural VP28 gene, a conventional PCR reaction was set up, which includes […], 5 pmol WSSV-VP28 primer (Table 1), 3 μl PCR-grade water, and 1 μl template DNA (Sundaram et al., 2016; Yoganandhan et al., 2003). The viral titer quantified through real time PCR, was 1.6×10^6 copies μL−1 which served as the stock for this study.
(§3) The anti-viral efficacy of GMVL and saponin-rich extract against WSSV was assessed in the freshwater crab, previously acclimated to laboratory conditions. The crabs were divided into different experimental groups containing 4 crabs per group and the experiment was performed in duplicates. The viral inoculum mixture was injected into the respective group after 3 h of pre-incubation. All the crabs were injected intramuscularly at the second abdominal segment. Briefly, healthy crabs received the injection as given above. The crabs were fed twice a day and observed regularly for gross signs of disease. The experiment was carried out up to several days depending on the survival after challenging with WSSV with/without above mentioned antagonist and mortality was recorded to plot a cumulative mortality graph.

[1] = Safety of test sample in non-infected freshwater crabs (Placebo group); also: key: 0: Represents live animal; 1: Represents Animal Mortality; type: in vivo, P. hydrodromous; details: GML 5 mg/animal
Procedure: Placebo: The term is used herein in reference to disease negative wherein the highest dose of test molecule has been injected, and evidences for safety of test molecules.
as §1, §2, §3

[2] = test system: white spot syndrome virus (WSSV); details: dietary supplementation; Qian et al. 2021, Gong et al. 2022; cited from earlier work
[3] = preincubated with WSSV, co-injected (i.m)

With `CCCCCCCCCCCC(=O)OCC(O)CO` (stereo not drawn) [GML, Glycerol monolaurate] the animal survival time (WSSV; 3 mg/animal, preincubated with WSSV, co-injected (i.m)) was greater than 140 h, the “time within which all animals in the test groups died post challenging” value (WSSV; 1 and 3 mg/animal, preincubated with WSSV, co-injected (i.m)) was no more than 150 h and the Animal survival/mortality (WSSV; GML 1 mg/animal, 0 h) was 0. It also gave an Animal survival/mortality (WSSV; GML 1 mg/animal, 6 h) of 0, an Animal survival/mortality (WSSV; GML 1 mg/animal, 12 h) of 0 and an Animal survival/mortality (WSSV; GML 1 mg/animal, 24 h) of 1. It also gave an Animal survival/mortality (WSSV; GML 1 mg/animal, 48 h) of 0, an Animal survival/mortality (WSSV; GML 1 mg/animal, 72 h) of 1 and an Animal survival/mortality (WSSV; GML 1 mg/animal, 96 h) of 1. It also gave an Animal survival/mortality (WSSV; GML 1 mg/animal, 120 h) of 1, an Animal survival/mortality (WSSV; GML 3 mg/animal, 0 h) of 0 and an Animal survival/mortality (WSSV; GML 3 mg/animal, 6 h) of 0. The Animal survival/mortality (WSSV; GML 3 mg/animal, 12 h) was 0, the Animal survival/mortality (WSSV; GML 3 mg/animal, 24 h) was 1 and the Animal survival/mortality (WSSV; GML 3 mg/animal, 48 h) was 0. The Animal survival/mortality (WSSV; GML 3 mg/animal, 72 h) was 1, the Animal survival/mortality (WSSV; GML 3 mg/animal, 96 h) was 1 and the Animal survival/mortality (WSSV; GML 3 mg/animal, 120 h) was 1. For the same compound, the Animal survival/mortality (WSSV; GML 3 mg/animal, 144 h) was 1, the “mortality (in words)” value (WSSV; alone or in combination) was “the mortality is significant” and the “inhibition of the virus” value (WSSV; [3]) was “partial inhibition of the virus”. The “protection of the animal from lethality” value (WSSV; [3]) was “could not protect the animal from lethality”, the “Animal survival/mortality (Placebo)” value ([1]; 0 h) was 0 and the “Animal survival/mortality (Placebo)” value ([1]; 6 h) was 0. The “Animal survival/mortality (Placebo)” value ([1]; 12 h) was 0, the “Animal survival/mortality (Placebo)” value ([1]; 24 h) was 0 and the “Animal survival/mortality (Placebo)” value ([1]; 48 h) was 0. The “Animal survival/mortality (Placebo)” value ([1]; 72 h) was 0, the “Animal survival/mortality (Placebo)” value ([1]; 96 h) was 0 and the “Animal survival/mortality (Placebo)” value ([1]; 120 h) was 0. The “Animal survival/mortality (Placebo)” value ([1]; 144 h) was 0, the WSSV copy number [2] was “reduced the WSSV copy number” and the “mortality of WSSV-infected crayfish” value [2] was “reduce the mortality”.
